Results as given in US20230135608A1 (CURACLE CO., LTD., priority 2021, published 2023).
Counter-ions that a name gives are not always drawn.

Columns and labels:
[1] = tested on: TGF-β/Smad signaling and ECM expression; conditions: chemical inhibitor of NQO1 or HO-1 added to DMF; cited from earlier work
[2] = tested on: UUO-induced renal fibrosis model; conditions: cited from earlier work
NRK-49F cells = conditions: DMF 40 μmol/1, semi-quantitative RT-PCR; cited from earlier work
NRK-49F and RMC cells = conditions: cited from earlier work
Nrf2 = conditions: cited from earlier work
AD-293 cells = conditions: cited from earlier work
[3] = tested on: streptozotocin (STZ, 150 mg/kg)-induced diabetic nephropathy mouse model; assay: UUO renal fibrosis and streptozotocin-induced diabetic nephropathy mouse models; assay type: in vivo; conditions: UUO and STZ (150 mg/kg) mouse models
Protocol: As a result, it was confirmed that a dose of 25 mg/kg was effective for diabetic nephropathy. When the dose confirmed in the animal model is converted into HED (Human Equivalent Dose), it is calculated as follows. HED=Animal dose in mg/kg×{Animal weight in kg/Human weight in kg}×60 kg=25 mg/kg×0.08×60 kg=120 mg

[4] = tested on: RMCs and rat glomerular mesangial cells; conditions: cited from earlier work
[5] = tested on: rat renal fibroblast cell line (NRK-49F); conditions: cited from earlier work
[6] = cited from earlier work

## COC1=CC(=O)c2c(c(COc3ccc([N+](=O)[O-])cc3)c(C)n2C)C1=O [ES936]
[1]
  reversal of the inhibitory effect of DMF on the TGF-β/Smad signaling and ECM expression: did not reverse

## COC(=O)/C=C/C(=O)OC [DMF, Dimethyl fumarate]
[2]
  expression of collagen type I, fibronectin, PAI-1 and α-SMA related to fibrosis: decreased the expression of collagen type I, fibronectin, PAI-1 and α-SMA
  expression of p-Smad3 increased by UUO: decreased the expression of p-Smad3
NRK-49F cells
  expression of NQO1 and HO-1: increased
NRK-49F and RMC cells
  Smad3 phosphorylation induced by TGF-β: inhibited
Nrf2; NRK-49F cells
  Nrf2 protein expression: sharp increase
  nuclear accumulation of Nrf2: induced the nuclear accumulation of Nrf2 dose-dependently
Nrf2; RMC cells
  expression of Nrf2 protein: rapidly increased
Nrf2; after DMF treatment
  expression of p62: increased 6 h after the DMF treatment and up to 12 hours thereafter
AD-293 cells; AD-293 cells, PAI-1-Luc reporter
  activity of the PAI-1 promoter induced by TGF-β: inhibited
AD-293 cells; reporter with 9 copies of the Smad3 binding site
  activity of the (CAGA)9MLP-Luc promoter induced by TGF-β or ALK5: inhibited
[3]
  dose effective for diabetic nephropathy: 25 mg/kg
[4]
  TGF-β-induced expression of PAI-1 protein: inhibitory effect
[5]; 24 hours of TGF-β treatment
  collagen type 1 induced by TGF-β (mRNA and protein): dose-dependently inhibit
[5]
  TGF-β-mediated expression of PAI-1, a-SMA, and fibronectin mRNA and protein: inhibited the TGF-β-mediated expression of PAI-1, a-SMA, and fibronectin mRNA and protein dose-dependently

## COC(=O)/C=C/C(=O)O [MMF, monomethyl fumarate]
[6]; 24 hours after administration of the drug
  detection of MMF after administration: not detected 24 hours after administration
[6]; in vivo
  elimination half-life of MMF: about 1 hour
[6]; repeated administration
  accumulation of MMF in the body: does not accumulate in the body even after repeated administration
